Test results as given in ChEMBL document CHEMBL3046317, “Synthesis and Herbicidal Activity of Sulfonylureas with Fused Heterocyclic Moiety” (1994).

These molecules were tested on Lindernia procumbens (assay: Herbicidal activity against Lindernia procumbens assessed as killing at 10 g/ha by pot test).
Assay type: functional

SMILES | Activity [%]
COc1cc(OC)nc(NC(=O)NS(=O)(=O)c2c(C)cc3ccccn23)n1 | 51
COc1cc(OC)nc(NC(=O)NS(=O)(=O)c2c(C)cn3ccccc23)n1 | 1
COc1cc(OC)nc(NC(=O)NS(=O)(=O)c2ncc3ccccn23)n1 | 51
COc1cc(OC)nc(NC(=O)NS(=O)(=O)c2nc(C)n3ccccc23)n1 | 1
COc1cc(OC)nc(NC(=O)NS(=O)(=O)c2ncn3ccccc23)n1 | 51
COc1cc(OC)nc(NC(=O)NS(=O)(=O)c2c(C)nn3ccccc23)n1 | 88
COc1cc(OC)nc(NC(=O)NS(=O)(=O)c2c(C)nn3cccnc23)n1 | 88
COc1cc(OC)nc(NC(=O)NS(=O)(=O)c2c(C)nc3n(C)ccn23)n1 | 51
COc1cc(OC)nc(NC(=O)NS(=O)(=O)c2c(C)nc3scnn23)n1 | 88
COc1cc(OC)nc(NC(=O)NS(=O)(=O)c2c(C)nc3cccnn23)n1 | 88

These molecules were tested on Echinochloa oryzicola (assay: Herbicidal activity against Echinochloa oryzicola assessed as killing at 10 g/ha by pot test).
Assay type: functional

SMILES | Activity [%]
COc1cc(OC)nc(NC(=O)NS(=O)(=O)c2c(C)cc3ccccn23)n1 | 76
COc1cc(OC)nc(NC(=O)NS(=O)(=O)c2c(C)cn3ccccc23)n1 | 1
COc1cc(OC)nc(NC(=O)NS(=O)(=O)c2ncc3ccccn23)n1 | 1
COc1cc(OC)nc(NC(=O)NS(=O)(=O)c2nc(C)n3ccccc23)n1 | 1
COc1cc(OC)nc(NC(=O)NS(=O)(=O)c2ncn3ccccc23)n1 | 51
COc1cc(OC)nc(NC(=O)NS(=O)(=O)c2c(C)nn3ccccc23)n1 | 88
COc1cc(OC)nc(NC(=O)NS(=O)(=O)c2c(C)nn3cccnc23)n1 | 88
COc1cc(OC)nc(NC(=O)NS(=O)(=O)c2c(C)nc3n(C)ccn23)n1 | 88
COc1cc(OC)nc(NC(=O)NS(=O)(=O)c2c(C)nc3scnn23)n1 | 88
COc1cc(OC)nc(NC(=O)NS(=O)(=O)c2c(C)nc3cccnn23)n1 | 100

The molecules below were run on Schoenoplectiella juncoides (assay: Herbicidal activity against Schoenoplectiella juncoides assessed as killing at 10 g/ha by pot test).
Assay type: functional

SMILES | Activity [%]
COc1cc(OC)nc(NC(=O)NS(=O)(=O)c2c(C)cc3ccccn23)n1 | 51
COc1cc(OC)nc(NC(=O)NS(=O)(=O)c2c(C)cn3ccccc23)n1 | 1
COc1cc(OC)nc(NC(=O)NS(=O)(=O)c2ncc3ccccn23)n1 | 51
COc1cc(OC)nc(NC(=O)NS(=O)(=O)c2nc(C)n3ccccc23)n1 | 1
COc1cc(OC)nc(NC(=O)NS(=O)(=O)c2ncn3ccccc23)n1 | 1
COc1cc(OC)nc(NC(=O)NS(=O)(=O)c2c(C)nn3ccccc23)n1 | 100
COc1cc(OC)nc(NC(=O)NS(=O)(=O)c2c(C)nn3cccnc23)n1 | 100
COc1cc(OC)nc(NC(=O)NS(=O)(=O)c2c(C)nc3n(C)ccn23)n1 | 76
COc1cc(OC)nc(NC(=O)NS(=O)(=O)c2c(C)nc3scnn23)n1 | 88
COc1cc(OC)nc(NC(=O)NS(=O)(=O)c2c(C)nc3cccnn23)n1 | 100

What follows are molecules tested on Cyperus difformis (assay: Herbicidal activity against Cyperus difformis assessed as killing at 10 g/ha by pot test).
Assay type: functional

SMILES | Activity [%]
COc1cc(OC)nc(NC(=O)NS(=O)(=O)c2c(C)cc3ccccn23)n1 | 76
COc1cc(OC)nc(NC(=O)NS(=O)(=O)c2c(C)cn3ccccc23)n1 | 51
COc1cc(OC)nc(NC(=O)NS(=O)(=O)c2ncc3ccccn23)n1 | 1
COc1cc(OC)nc(NC(=O)NS(=O)(=O)c2nc(C)n3ccccc23)n1 | 76
COc1cc(OC)nc(NC(=O)NS(=O)(=O)c2ncn3ccccc23)n1 | 76
COc1cc(OC)nc(NC(=O)NS(=O)(=O)c2c(C)nn3ccccc23)n1 | 88
COc1cc(OC)nc(NC(=O)NS(=O)(=O)c2c(C)nn3cccnc23)n1 | 88
COc1cc(OC)nc(NC(=O)NS(=O)(=O)c2c(C)nc3n(C)ccn23)n1 | 76
COc1cc(OC)nc(NC(=O)NS(=O)(=O)c2c(C)nc3scnn23)n1 | 88
COc1cc(OC)nc(NC(=O)NS(=O)(=O)c2c(C)nc3cccnn23)n1 | 100

Each molecule was assayed on Schoenoplectiella juncoides (assay: Herbicidal activity against Schoenoplectiella juncoides assessed as killing at 1 g/ha by pot test).
Assay type: functional

SMILES | Activity [%]
COc1cc(OC)nc(NC(=O)NS(=O)(=O)c2c(C)cc3ccccn23)n1 | 1
COc1cc(OC)nc(NC(=O)NS(=O)(=O)c2c(C)cn3ccccc23)n1 | 1
COc1cc(OC)nc(NC(=O)NS(=O)(=O)c2ncc3ccccn23)n1 | 1
COc1cc(OC)nc(NC(=O)NS(=O)(=O)c2nc(C)n3ccccc23)n1 | 1
COc1cc(OC)nc(NC(=O)NS(=O)(=O)c2ncn3ccccc23)n1 | 1
COc1cc(OC)nc(NC(=O)NS(=O)(=O)c2c(C)nn3ccccc23)n1 | 76
COc1cc(OC)nc(NC(=O)NS(=O)(=O)c2c(C)nn3cccnc23)n1 | 76
COc1cc(OC)nc(NC(=O)NS(=O)(=O)c2c(C)nc3n(C)ccn23)n1 | 1
COc1cc(OC)nc(NC(=O)NS(=O)(=O)c2c(C)nc3scnn23)n1 | 51
COc1cc(OC)nc(NC(=O)NS(=O)(=O)c2c(C)nc3cccnn23)n1 | 100

Each molecule was assayed on Sagittaria pygmaea (assay: Herbicidal activity against Sagittaria pygmaea assessed as killing at 1 g/ha by pot test).
Assay type: functional

SMILES | Activity [%]
COc1cc(OC)nc(NC(=O)NS(=O)(=O)c2c(C)cc3ccccn23)n1 | 51
COc1cc(OC)nc(NC(=O)NS(=O)(=O)c2c(C)cn3ccccc23)n1 | 51
COc1cc(OC)nc(NC(=O)NS(=O)(=O)c2ncc3ccccn23)n1 | 1
COc1cc(OC)nc(NC(=O)NS(=O)(=O)c2nc(C)n3ccccc23)n1 | 51
COc1cc(OC)nc(NC(=O)NS(=O)(=O)c2ncn3ccccc23)n1 | 1
COc1cc(OC)nc(NC(=O)NS(=O)(=O)c2c(C)nn3ccccc23)n1 | 88
COc1cc(OC)nc(NC(=O)NS(=O)(=O)c2c(C)nn3cccnc23)n1 | 76
COc1cc(OC)nc(NC(=O)NS(=O)(=O)c2c(C)nc3n(C)ccn23)n1 | 1
COc1cc(OC)nc(NC(=O)NS(=O)(=O)c2c(C)nc3scnn23)n1 | 1
COc1cc(OC)nc(NC(=O)NS(=O)(=O)c2c(C)nc3cccnn23)n1 | 88

The molecules below were run on Echinochloa oryzicola (assay: Herbicidal activity against Echinochloa oryzicola assessed as killing at 1 g/ha by pot test).
Assay type: functional

SMILES | Activity [%]
COc1cc(OC)nc(NC(=O)NS(=O)(=O)c2c(C)cc3ccccn23)n1 | 1
COc1cc(OC)nc(NC(=O)NS(=O)(=O)c2c(C)cn3ccccc23)n1 | 1
COc1cc(OC)nc(NC(=O)NS(=O)(=O)c2ncc3ccccn23)n1 | 1
COc1cc(OC)nc(NC(=O)NS(=O)(=O)c2nc(C)n3ccccc23)n1 | 1
COc1cc(OC)nc(NC(=O)NS(=O)(=O)c2ncn3ccccc23)n1 | 1
COc1cc(OC)nc(NC(=O)NS(=O)(=O)c2c(C)nn3ccccc23)n1 | 88
COc1cc(OC)nc(NC(=O)NS(=O)(=O)c2c(C)nn3cccnc23)n1 | 88
COc1cc(OC)nc(NC(=O)NS(=O)(=O)c2c(C)nc3n(C)ccn23)n1 | 1
COc1cc(OC)nc(NC(=O)NS(=O)(=O)c2c(C)nc3scnn23)n1 | 76
COc1cc(OC)nc(NC(=O)NS(=O)(=O)c2c(C)nc3cccnn23)n1 | 88

What follows are molecules tested on Lindernia procumbens (assay: Herbicidal activity against Lindernia procumbens assessed as killing at 1 g/ha by pot test).
Assay type: functional

SMILES | Activity [%]
COc1cc(OC)nc(NC(=O)NS(=O)(=O)c2c(C)cc3ccccn23)n1 | 1
COc1cc(OC)nc(NC(=O)NS(=O)(=O)c2c(C)cn3ccccc23)n1 | 1
COc1cc(OC)nc(NC(=O)NS(=O)(=O)c2ncc3ccccn23)n1 | 1
COc1cc(OC)nc(NC(=O)NS(=O)(=O)c2nc(C)n3ccccc23)n1 | 1
COc1cc(OC)nc(NC(=O)NS(=O)(=O)c2ncn3ccccc23)n1 | 1
COc1cc(OC)nc(NC(=O)NS(=O)(=O)c2c(C)nn3ccccc23)n1 | 76
COc1cc(OC)nc(NC(=O)NS(=O)(=O)c2c(C)nn3cccnc23)n1 | 88
COc1cc(OC)nc(NC(=O)NS(=O)(=O)c2c(C)nc3n(C)ccn23)n1 | 51
COc1cc(OC)nc(NC(=O)NS(=O)(=O)c2c(C)nc3scnn23)n1 | 76
COc1cc(OC)nc(NC(=O)NS(=O)(=O)c2c(C)nc3cccnn23)n1 | 88

What follows are molecules tested on Sagittaria pygmaea (assay: Herbicidal activity against Sagittaria pygmaea assessed as killing at 10 g/ha by pot test).
Assay type: functional

SMILES | Activity [%]
COc1cc(OC)nc(NC(=O)NS(=O)(=O)c2c(C)cc3ccccn23)n1 | 76
COc1cc(OC)nc(NC(=O)NS(=O)(=O)c2c(C)cn3ccccc23)n1 | 76
COc1cc(OC)nc(NC(=O)NS(=O)(=O)c2ncc3ccccn23)n1 | 76
COc1cc(OC)nc(NC(=O)NS(=O)(=O)c2nc(C)n3ccccc23)n1 | 51
COc1cc(OC)nc(NC(=O)NS(=O)(=O)c2ncn3ccccc23)n1 | 76
COc1cc(OC)nc(NC(=O)NS(=O)(=O)c2c(C)nn3ccccc23)n1 | 88
COc1cc(OC)nc(NC(=O)NS(=O)(=O)c2c(C)nn3cccnc23)n1 | 88
COc1cc(OC)nc(NC(=O)NS(=O)(=O)c2c(C)nc3n(C)ccn23)n1 | 76
COc1cc(OC)nc(NC(=O)NS(=O)(=O)c2c(C)nc3scnn23)n1 | 88
COc1cc(OC)nc(NC(=O)NS(=O)(=O)c2c(C)nc3cccnn23)n1 | 100

These molecules were tested on Rotala indica (assay: Herbicidal activity against Rotala indica assessed as killing at 1 g/ha by pot test).
Assay type: functional

SMILES | Activity [%]
COc1cc(OC)nc(NC(=O)NS(=O)(=O)c2c(C)cc3ccccn23)n1 | 1
COc1cc(OC)nc(NC(=O)NS(=O)(=O)c2c(C)cn3ccccc23)n1 | 1
COc1cc(OC)nc(NC(=O)NS(=O)(=O)c2ncc3ccccn23)n1 | 51
COc1cc(OC)nc(NC(=O)NS(=O)(=O)c2nc(C)n3ccccc23)n1 | 51
COc1cc(OC)nc(NC(=O)NS(=O)(=O)c2ncn3ccccc23)n1 | 51
COc1cc(OC)nc(NC(=O)NS(=O)(=O)c2c(C)nn3ccccc23)n1 | 88
COc1cc(OC)nc(NC(=O)NS(=O)(=O)c2c(C)nn3cccnc23)n1 | 76
COc1cc(OC)nc(NC(=O)NS(=O)(=O)c2c(C)nc3n(C)ccn23)n1 | 51
COc1cc(OC)nc(NC(=O)NS(=O)(=O)c2c(C)nc3scnn23)n1 | 76
COc1cc(OC)nc(NC(=O)NS(=O)(=O)c2c(C)nc3cccnn23)n1 | 88

These molecules were tested on Cyperus difformis (assay: Herbicidal activity against Cyperus difformis assessed as killing at 1 g/ha by pot test).
Assay type: functional

SMILES | Activity [%]
COc1cc(OC)nc(NC(=O)NS(=O)(=O)c2c(C)cc3ccccn23)n1 | 1
COc1cc(OC)nc(NC(=O)NS(=O)(=O)c2c(C)cn3ccccc23)n1 | 1
COc1cc(OC)nc(NC(=O)NS(=O)(=O)c2ncc3ccccn23)n1 | 1
COc1cc(OC)nc(NC(=O)NS(=O)(=O)c2nc(C)n3ccccc23)n1 | 1
COc1cc(OC)nc(NC(=O)NS(=O)(=O)c2ncn3ccccc23)n1 | 51
COc1cc(OC)nc(NC(=O)NS(=O)(=O)c2c(C)nn3ccccc23)n1 | 88
COc1cc(OC)nc(NC(=O)NS(=O)(=O)c2c(C)nn3cccnc23)n1 | 88
COc1cc(OC)nc(NC(=O)NS(=O)(=O)c2c(C)nc3n(C)ccn23)n1 | 1
COc1cc(OC)nc(NC(=O)NS(=O)(=O)c2c(C)nc3scnn23)n1 | 1
COc1cc(OC)nc(NC(=O)NS(=O)(=O)c2c(C)nc3cccnn23)n1 | 88

What follows are molecules tested on Rotala indica (assay: Herbicidal activity against Rotala indica assessed as killing at 10 g/ha by pot test).
Assay type: functional

SMILES | Activity [%]
COc1cc(OC)nc(NC(=O)NS(=O)(=O)c2c(C)cc3ccccn23)n1 | 51
COc1cc(OC)nc(NC(=O)NS(=O)(=O)c2c(C)cn3ccccc23)n1 | 1
COc1cc(OC)nc(NC(=O)NS(=O)(=O)c2ncc3ccccn23)n1 | 51
COc1cc(OC)nc(NC(=O)NS(=O)(=O)c2nc(C)n3ccccc23)n1 | 76
COc1cc(OC)nc(NC(=O)NS(=O)(=O)c2ncn3ccccc23)n1 | 76
COc1cc(OC)nc(NC(=O)NS(=O)(=O)c2c(C)nn3ccccc23)n1 | 88
COc1cc(OC)nc(NC(=O)NS(=O)(=O)c2c(C)nn3cccnc23)n1 | 88
COc1cc(OC)nc(NC(=O)NS(=O)(=O)c2c(C)nc3n(C)ccn23)n1 | 88
COc1cc(OC)nc(NC(=O)NS(=O)(=O)c2c(C)nc3scnn23)n1 | 88
COc1cc(OC)nc(NC(=O)NS(=O)(=O)c2c(C)nc3cccnn23)n1 | 88
